System: primary human lung fibroblasts and primary rodent HSCs
Assay: High content imaging assay (α-SMA staining, cell morphology) of fibroblast to myofibroblast transdifferentiation, confirmed by Western blot and RT-PCR
Details: Homo sapiens, Fibroblast; imaging and western based activity
In short: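 Primary human lung fibroblasts and primary rodent HSCs were serum-starved and then TGF-β-treated to drive transdifferentiation in 384-well format, with SB-431542 as positive control. Readouts were α-SMA immunofluorescence and cell morphology by high-content imaging, confirmed by Western blot and RT-PCR in 4-day, 4-point dose-response assays; EC50 values are graded.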

Compound | EC50
CC[C@H](C)n1ncn(-c2ccc(N3CCN(c4ccc(OC[C@@H]5CO[C@@](Cn6cccn6)(c6ccc(C#N)cc6C)O5)cc4)CC3)cc2)c1=O [Compound 172] | 500 to 5000 nM
CC[C@@H](C)n1ncn(-c2ccc(N3CCN(c4ccc(OC[C@@H]5CO[C@@](Cn6cccn6)(c6ccc(C#N)cc6C)O5)cc4)CC3)cc2)c1=O [Compound 173] | 500 to 5000 nM
CC[C@H](C)n1ncn(-c2ccc(N3CCN(c4ccc(OC[C@H]5CO[C@](Cn6cccn6)(c6ccc(C#N)cc6C)O5)cc4)CC3)cc2)c1=O [Compound 174] | 500 to 5000 nM
CC[C@@H](C)n1ncn(-c2ccc(N3CCN(c4ccc(OC[C@H]5CO[C@](Cn6cccn6)(c6ccc(C#N)cc6C)O5)cc4)CC3)cc2)c1=O [Compound 175] | 5000 to 30000 nM
CCC(CC)n1ncn(-c2ccc(N3CCN(c4ccc(OC[C@@H]5CO[C@@](Cn6cccn6)(c6ccc(C#N)cc6C)O5)cc4)CC3)cc2)c1=O [Compound 176] | < 500 nM
CCC(CC)n1ncn(-c2ccc(N3CCN(c4ccc(OC[C@H]5CO[C@](Cn6cccn6)(c6ccc(C#N)cc6C)O5)cc4)CC3)cc2)c1=O [Compound 177] | 500 to 5000 nM
CCC(C)n1ncn(-c2ccc(N3CCN(c4ccc(OC[C@@H]5CO[C@@](Cn6nccn6)(c6ccccc6)O5)cc4)CC3)cc2)c1=O (stereo partly shown) [Compound 178] | < 500 nM
CC[C@@H](C)n1ncn(-c2ccc(N3CCN(c4ccc(OC[C@@H]5CO[C@@](Cn6nccn6)(c6ccccc6)O5)cc4)CC3)cc2)c1=O [Compound 179, 4-(4-(4-(4-(((2S,4R)-2-((2H-1,2,3-triazol-2-yl)methyl)-2-phenyl-1,3-dioxolan-4-yl)methoxy)phenyl)piperazin-1-yl)phenyl)-(R)-1-sec-butyl-1H-1,2,4-triazol-5(4H)-one] | < 500 nM
CC[C@H](C)n1ncn(-c2ccc(N3CCN(c4ccc(OC[C@@H]5CO[C@@](Cn6nccn6)(c6ccccc6)O5)cc4)CC3)cc2)c1=O [Compound 180, 4-(4-(4-(4-(((2S,4R)-2-((2H-1,2,3-triazol-2-yl)methyl)-2-phenyl-1,3-dioxolan-4-yl)methoxy)phenyl)piperazin-1-yl)phenyl)-(S)-1-sec-butyl-1H-1,2,4-triazol-5(4H)-one] | < 500 nM
CCC(C)n1ncn(-c2ccc(N3CCN(c4ccc(OC[C@H]5CO[C@](Cn6nccn6)(c6ccccc6)O5)cc4)CC3)cc2)c1=O (stereo partly shown) [Compound 181] | < 500 nM
CC[C@@H](C)n1ncn(-c2ccc(N3CCN(c4ccc(OC[C@H]5CO[C@](Cn6nccn6)(c6ccccc6)O5)cc4)CC3)cc2)c1=O [Compound 182, 4-(4-(4-(4-(((2R,4S)-2-((2H-1,2,3-triazol-2-yl)methyl)-2-phenyl-1,3-dioxolan-4-yl)methoxy)phenyl)piperazin-1-yl)phenyl)-(R)-1-sec-butyl-1H-1,2,4-triazol-5(4H)-one] | < 500 nM
CC[C@H](C)n1ncn(-c2ccc(N3CCN(c4ccc(OC[C@H]5CO[C@](Cn6nccn6)(c6ccccc6)O5)cc4)CC3)cc2)c1=O [Compound 183, 4-(4-(4-(4-(((2R,4S)-2-((2H-1,2,3-triazol-2-yl)methyl)-2-phenyl-1,3-dioxolan-4-yl)methoxy)phenyl)piperazin-1-yl)phenyl)-(S)-1-sec-butyl-1H-1,2,4-triazol-5(4H)-one] | < 500 nM
CC[C@@H](C)n1ncn(-c2ccc(N3CCN(c4ccc(OC[C@H]5CO[C@@](Cn6nccn6)(c6ccccc6)O5)cc4)CC3)cc2)c1=O [Compound 184] | < 500 nM
CC[C@H](C)n1ncn(-c2ccc(N3CCN(c4ccc(OC[C@H]5CO[C@@](Cn6nccn6)(c6ccccc6)O5)cc4)CC3)cc2)c1=O [Compound 185] | < 500 nM
CCC(C)n1ncn(-c2ccc(N3CCN(c4ccc(OC[C@@H]5CO[C@](Cn6nccn6)(c6ccccc6)O5)cc4)CC3)cc2)c1=O (stereo partly shown) [Compound 186] | 5000 to 30000 nM
CCC(C)n1ncn(-c2ccc(N3CCN(c4ccc(OC[C@H]5CO[C@@](Cn6nccn6)(c6ccccc6)O5)cc4)CC3)cc2)c1=O (stereo partly shown) [Compound 188] | 5000 to 30000 nM
CC[C@@H](C)n1ncn(-c2ccc(N3CCN(c4ccc(OC[C@@H]5CO[C@](Cn6nccn6)(c6ccccc6)O5)cc4)CC3)cc2)c1=O [Compound 189] | 5000 to 30000 nM
CC[C@H](C)n1ncn(-c2ccc(N3CCN(c4ccc(OC[C@@H]5CO[C@](Cn6nccn6)(c6ccccc6)O5)cc4)CC3)cc2)c1=O [Compound 190] | 500 to 5000 nM
C#CCCCn1ncn(-c2ccc(N3CCN(c4ccc(OC[C@@H]5CO[C@@](Cn6cncn6)(c6ccc(N=[N+]=[N-])cc6)O5)cc4)CC3)cc2)c1=O [Compound 191] | 500 to 5000 nM
C#Cc1ccc([C@]2(Cn3cncn3)OC[C@@H](COc3ccc(N4CCN(c5ccc(-n6cnn(CCC7(C)N=N7)c6=O)cc5)CC4)cc3)O2)cc1 [Compound 192] | 500 to 5000 nM

Same assay, conditions: imaging and western based activity

Compound | EC50
CCC(C)n1ncn(-c2ccc(N3CCN(c4ccc(OC[C@@H]5CO[C@](Cn6nccn6)(c6ccccc6)O5)cc4)CC3)cc2)c1=O (stereo partly shown) [Compound 187] | 5000 to 30000 nM
cis (±)-4-(4-(4-(4-((4-((2H-1,2,3-triazol-2-yl)methyl)-4-(2,4-difluorophenyl)-1,3-dioxolan-2-yl)methoxy)phenyl)piperazin-1-yl)phenyl)-1-sec-butyl-1H-1,2,4-triazol-5(4H)-one [Compound 199] | < 500 nM

— US10336735B2, “Small molecule inhibitors of fibrosis” (THE CALIFORNIA INSTITUTE FOR BIOMEDICAL RESEARCH, priority 2014, dated 2019)
